From paper PMC10127203, “Trapoxin A Analogue as a Selective Nanomolar Inhibitor of HDAC11” (ACS Chemical Biology, 2023)
Values belong to the compound of their own block, whether it stands above or below them.

Tests used:
HDAC11 [1] = target: T1, HDAC11 (Homo sapiens, UniProt Q96DB2); parameters: method as in PMID 31264832; conditions: cited from earlier work
T1 sequence (Q96DB2 1-347): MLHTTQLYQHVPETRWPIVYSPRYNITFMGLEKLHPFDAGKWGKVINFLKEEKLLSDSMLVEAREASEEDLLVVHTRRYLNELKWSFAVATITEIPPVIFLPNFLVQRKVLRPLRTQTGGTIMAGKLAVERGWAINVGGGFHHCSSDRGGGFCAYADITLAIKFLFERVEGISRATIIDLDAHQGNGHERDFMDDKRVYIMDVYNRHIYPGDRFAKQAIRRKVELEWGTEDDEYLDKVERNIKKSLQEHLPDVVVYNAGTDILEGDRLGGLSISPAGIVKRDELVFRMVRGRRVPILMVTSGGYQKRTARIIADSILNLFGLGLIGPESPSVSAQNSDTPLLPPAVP

HDAC11 [2] = target: T1, HDAC11; test: HDAC11 enzyme activity assay (Myr-H3K9 peptide, HPLC); assay type: biochemical; parameters: made in house
Method: All quantified measurements were performed in triplicates. Data processing was performed using Graphpad Prism 9.5.0. Repeated measures of one-way ANOVA with Fisher’s LSD test were used to determine the P value. The dose–response data was fitted using a two-step nonlinear regression of the Morrison equation. […] HDACs and SIRTs were expressed and purified as previously described.[13] […] For HDAC1, 6, 8, and SIRT1-2, Ac-H3K9 was used as a substrate. […] The reaction was conducted for 15 min (HDAC11), 30 min (HDAC1, 4, 6, 8), and 5 min (SIRT1-2). Then, 20 μL of 0.2% TFA/acetonitrile was added to quench the reaction. The samples were analyzed by HPLC using a Chromolith HighResolution RP-18 end-capped 100 mm × 4.6 mm column (EMD Millipore). Mobile phase A was 0.1% TFA in water and mobile phase B was 0.1% TFA in acetonitrile. The total flow rate was 1 mL/min, and the gradient was 0% B (2 min), 0–60% B (7 min), 100% B (4 min), and 0% B (2 min). The relative ratio of product/substrate in each sample was compared to control sample (no inhibitor) to determine the inhibition level.

[3] = test system: YAP1 target genes CTGF and CYR61 in A549 cells; test: mRNA level of YAP1 and YAP1 target genes (CTGF, CYR61) by qRT-PCR in A549 cells; assay type: cell-based; conditions: for mRNA levels of YAP1 target genes CTGF and CYR61: 5 and 10 μM, 24 hr
Method: (§1) A549 cells were treated with TD034 at 5 and 10 μM for 24 hr. Western blot was used to check for YAP1 protein level. qRT-PCR was used to check for YAP1 downstream genes transcription (CTGF and CYR61). Total RNA was extracted using IBI Isolate Total Extraction Reagent Kit (IB47602). […] of RNA was reverse transcribed using OneScript Plus cDNA Synthesis Kit (ABM G236) according to the manufacturer’s protocol. Real-time PCR was performed using BlasTaq 2X qPCR MasterMix (ABM G892) on a QuantStudio 3 Real-Time PCR System. All qPCR reactions were performed in triplicates. The list of primers is included in the Supporting Information.

[4] = test system: YAP1 protein level in A549 cells; test: YAP1 protein level by Western blot in A549 cells; assay type: cell-based; conditions: for YAP1 protein levels: A549 cells, 5 and 10 μM, 24 hr
Method: as §1

[5] = test system: α-tubulin, p53, and histone H3 acetylation levels; test: Acetylation levels of α-tubulin, p53 and histone H3 by Western blot in cells; assay type: cell-based; conditions: 3 h of treatment
Excerpt: . As a positive control, we used trichostatin A (TSA), a nonselective HDAC inhibitor against both class I and class IIb HDACs.[25] […]

SIRT2 = target: T2, SIRT2 (Homo sapiens, UniProt Q8IXJ6); test: SIRT2 enzyme activity assay (Ac-H3K9, NAD+, HPLC)
T2 sequence (Q8IXJ6 1-389): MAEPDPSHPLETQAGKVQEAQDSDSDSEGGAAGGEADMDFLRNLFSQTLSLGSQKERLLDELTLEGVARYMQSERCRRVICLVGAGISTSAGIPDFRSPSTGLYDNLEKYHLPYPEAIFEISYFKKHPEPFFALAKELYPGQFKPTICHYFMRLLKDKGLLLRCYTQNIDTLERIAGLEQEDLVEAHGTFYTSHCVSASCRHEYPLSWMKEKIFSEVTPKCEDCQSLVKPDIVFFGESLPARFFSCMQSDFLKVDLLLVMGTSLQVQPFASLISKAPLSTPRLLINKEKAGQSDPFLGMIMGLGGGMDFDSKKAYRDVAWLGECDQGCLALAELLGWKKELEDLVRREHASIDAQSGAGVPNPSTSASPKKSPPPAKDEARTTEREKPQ

HDAC8 = target: T3, HDAC8 (Homo sapiens, UniProt Q9BY41); test: HDAC8 enzyme activity assay (Ac-H3K9, HPLC); conditions: read-out: HDAC8, % inhibition
T3 sequence (Q9BY41 1-377): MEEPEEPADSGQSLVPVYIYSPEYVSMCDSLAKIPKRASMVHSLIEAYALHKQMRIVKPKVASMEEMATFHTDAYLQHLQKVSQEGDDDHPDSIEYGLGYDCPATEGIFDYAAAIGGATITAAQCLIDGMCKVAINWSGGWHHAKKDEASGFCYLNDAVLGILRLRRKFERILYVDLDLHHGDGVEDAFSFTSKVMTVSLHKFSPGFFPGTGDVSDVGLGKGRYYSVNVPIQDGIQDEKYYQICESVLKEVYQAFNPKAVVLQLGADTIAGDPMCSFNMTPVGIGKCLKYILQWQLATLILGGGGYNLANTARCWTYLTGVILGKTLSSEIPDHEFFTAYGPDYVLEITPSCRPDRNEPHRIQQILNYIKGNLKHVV

[6] = pH 8
HDAC1 = HDAC1 (Homo sapiens, UniProt Q13547); test: HDAC1 enzyme activity assay (Ac-H3K9, HPLC); conditions: read-out: HDAC1, % inhibition
SIRT1 = target: T4, SIRT1 (Homo sapiens, UniProt Q96EB6); test: SIRT1 enzyme activity assay (Ac-H3K9, NAD+, HPLC); conditions: read-out: SIRT1, % inhibition
T4 sequence (Q96EB6 1-747): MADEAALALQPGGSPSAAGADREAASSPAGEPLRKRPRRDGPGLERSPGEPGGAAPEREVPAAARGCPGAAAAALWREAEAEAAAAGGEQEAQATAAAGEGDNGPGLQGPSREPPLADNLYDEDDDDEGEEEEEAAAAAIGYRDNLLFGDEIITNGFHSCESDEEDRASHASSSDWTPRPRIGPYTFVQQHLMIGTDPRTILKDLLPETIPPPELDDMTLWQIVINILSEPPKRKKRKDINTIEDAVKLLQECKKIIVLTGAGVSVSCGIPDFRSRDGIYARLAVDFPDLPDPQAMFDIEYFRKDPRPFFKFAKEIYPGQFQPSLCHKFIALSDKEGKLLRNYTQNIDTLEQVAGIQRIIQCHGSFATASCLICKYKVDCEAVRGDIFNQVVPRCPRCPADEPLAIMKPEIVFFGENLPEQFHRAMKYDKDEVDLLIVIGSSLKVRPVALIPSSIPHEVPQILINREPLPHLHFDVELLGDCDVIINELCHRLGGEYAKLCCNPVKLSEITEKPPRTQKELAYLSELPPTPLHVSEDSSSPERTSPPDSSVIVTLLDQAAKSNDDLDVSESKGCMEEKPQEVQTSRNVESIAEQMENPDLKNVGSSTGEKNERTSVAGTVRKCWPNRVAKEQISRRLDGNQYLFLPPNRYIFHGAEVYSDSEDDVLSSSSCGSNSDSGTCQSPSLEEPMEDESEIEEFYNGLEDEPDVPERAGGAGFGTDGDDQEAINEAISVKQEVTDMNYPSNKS

HDAC6 = target: T5, HDAC6 (Homo sapiens, UniProt Q9UBN7); test: HDAC6 enzyme activity assay (Ac-H3K9, HPLC); conditions: read-out: HDAC6, % inhibition
T5 sequence (Q9UBN7 1-1215): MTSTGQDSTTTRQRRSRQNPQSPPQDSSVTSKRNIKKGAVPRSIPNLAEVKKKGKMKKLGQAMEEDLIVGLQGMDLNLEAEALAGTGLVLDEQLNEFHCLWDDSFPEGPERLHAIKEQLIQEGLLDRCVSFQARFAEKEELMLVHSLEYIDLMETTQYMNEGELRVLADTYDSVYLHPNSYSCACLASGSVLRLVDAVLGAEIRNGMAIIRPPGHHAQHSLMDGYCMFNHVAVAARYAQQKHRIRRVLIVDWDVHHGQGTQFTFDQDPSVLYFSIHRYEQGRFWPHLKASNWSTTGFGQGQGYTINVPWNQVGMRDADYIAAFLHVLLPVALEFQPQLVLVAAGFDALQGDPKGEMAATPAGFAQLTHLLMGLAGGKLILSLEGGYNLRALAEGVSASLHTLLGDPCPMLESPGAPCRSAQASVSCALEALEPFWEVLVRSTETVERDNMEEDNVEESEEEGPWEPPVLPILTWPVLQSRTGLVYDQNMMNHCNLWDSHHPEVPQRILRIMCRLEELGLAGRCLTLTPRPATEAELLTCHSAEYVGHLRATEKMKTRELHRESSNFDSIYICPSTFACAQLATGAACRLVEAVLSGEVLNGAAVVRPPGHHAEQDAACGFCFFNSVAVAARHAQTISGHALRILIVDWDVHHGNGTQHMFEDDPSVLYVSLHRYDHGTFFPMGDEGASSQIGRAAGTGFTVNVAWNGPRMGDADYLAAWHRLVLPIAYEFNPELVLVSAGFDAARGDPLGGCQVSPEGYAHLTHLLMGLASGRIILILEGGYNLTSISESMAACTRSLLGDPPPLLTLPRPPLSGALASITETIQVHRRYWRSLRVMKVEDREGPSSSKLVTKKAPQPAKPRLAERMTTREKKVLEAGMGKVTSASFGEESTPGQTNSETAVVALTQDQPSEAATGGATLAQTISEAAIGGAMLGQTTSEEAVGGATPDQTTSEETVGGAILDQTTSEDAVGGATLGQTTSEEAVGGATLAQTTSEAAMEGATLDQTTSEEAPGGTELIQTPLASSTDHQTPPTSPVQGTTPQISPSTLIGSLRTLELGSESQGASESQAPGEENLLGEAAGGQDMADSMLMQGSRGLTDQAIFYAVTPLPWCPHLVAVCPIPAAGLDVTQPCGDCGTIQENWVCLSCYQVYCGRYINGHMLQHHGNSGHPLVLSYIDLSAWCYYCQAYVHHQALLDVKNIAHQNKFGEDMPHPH

HDAC4 = HDAC4 (Homo sapiens, UniProt P56524); test: HDAC4 enzyme activity assay (trifluoroacetyl-H3K9, HPLC); conditions: read-out: HDAC4, % inhibition
HDAC11 [7] = target: T1, HDAC11; test: HDAC11 in cell assay: defatty acylation of SHMT2 (Alk14 labeling, Western blot); assay type: cell-based; parameters: endogenous in cells; host or cells: HEK293T; conditions: HEK293T cells, 20 μM, 3 h, 50 μM Alk14
Method: We treated HEK293T cells with an alkyne-tagged myristic acid analog, Alk14, along with the inhibitors (TD034, SIS17, or FT895) for 3 h. Click chemistry was performed on cell lysate with Biotin-azide, followed by Streptavidin pulldown. […] HEK293T in a six-well plate at 80% confluency was treated with 50 μM Alk14 and inhibitors at various concentrations. The cells were incubated for 3 h. The cells were harvested and lysed in 200 μL of 4% SDS lysis buffer (50 mM triethanolamine, 150 mM NaCl, 4% SDS, pH 7.4) with a 1:100 protease inhibitor cocktail and 1:1000 nuclease for 15 min. The cell lysates were then diluted with 3.8 mL of HEPES buffer (50 mM HEPES, 150 mM NaCl, 1% NP-40, pH 7.4), and then concentrated using Amicon Ultra-4 (30 kDa cutoff) for 45 min at 4000g. The retained samples were then diluted to 0.5 mL with HEPES buffer, followed by the addition of Biotin-N3 (5 μL, 5 mM in DMF), TBTA (5 μL, 2 mM in DMF), CuSO4 (5 μL, 50 mM in water), and TCEP (5 μL, 50 mM in water). The samples were shaken at 37 °C for 1 h, then diluted with 3 mL of HEPES buffer, and concentrated again using Amicon Ultra-4 (30 kDa cutoff) for 45 min at 4000g. The retained samples were then diluted to 0.5 mL with HEPES buffer, followed by the addition of 20 μg of magnetic streptavidin beads (prewashed with the HEPES buffer). […] The eluants were further analyzed by SDS-PAGE and Western blot for SHMT2.

Sequence of HDAC4 (P56524 whole entry): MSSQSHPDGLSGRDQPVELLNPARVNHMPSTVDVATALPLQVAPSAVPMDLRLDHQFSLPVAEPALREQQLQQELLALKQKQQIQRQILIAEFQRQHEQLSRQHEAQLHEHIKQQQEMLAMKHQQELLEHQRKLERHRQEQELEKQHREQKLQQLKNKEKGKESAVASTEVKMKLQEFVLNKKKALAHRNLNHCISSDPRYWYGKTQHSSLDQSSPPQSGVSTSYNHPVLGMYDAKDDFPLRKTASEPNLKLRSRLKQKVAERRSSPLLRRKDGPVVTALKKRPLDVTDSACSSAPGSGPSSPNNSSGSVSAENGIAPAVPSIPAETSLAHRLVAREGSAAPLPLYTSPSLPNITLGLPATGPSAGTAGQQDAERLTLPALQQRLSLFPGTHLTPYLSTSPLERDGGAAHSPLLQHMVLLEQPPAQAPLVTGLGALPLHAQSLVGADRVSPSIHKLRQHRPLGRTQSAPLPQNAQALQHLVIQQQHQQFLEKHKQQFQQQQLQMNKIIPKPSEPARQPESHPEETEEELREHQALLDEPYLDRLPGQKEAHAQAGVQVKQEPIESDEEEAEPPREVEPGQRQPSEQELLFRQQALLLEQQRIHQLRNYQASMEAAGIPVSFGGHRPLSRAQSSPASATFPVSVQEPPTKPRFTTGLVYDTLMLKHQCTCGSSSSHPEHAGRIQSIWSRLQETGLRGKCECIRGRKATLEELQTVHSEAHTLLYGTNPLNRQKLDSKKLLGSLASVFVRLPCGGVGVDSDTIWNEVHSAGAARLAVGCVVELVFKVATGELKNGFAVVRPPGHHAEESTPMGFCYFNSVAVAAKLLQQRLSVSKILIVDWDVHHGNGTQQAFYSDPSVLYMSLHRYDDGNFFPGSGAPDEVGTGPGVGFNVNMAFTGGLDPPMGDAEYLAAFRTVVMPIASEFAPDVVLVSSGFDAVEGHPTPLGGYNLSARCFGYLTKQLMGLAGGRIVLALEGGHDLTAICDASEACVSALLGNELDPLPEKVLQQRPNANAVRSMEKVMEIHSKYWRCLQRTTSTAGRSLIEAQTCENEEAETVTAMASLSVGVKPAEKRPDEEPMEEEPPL
Sequence of HDAC1 (Q13547 whole entry): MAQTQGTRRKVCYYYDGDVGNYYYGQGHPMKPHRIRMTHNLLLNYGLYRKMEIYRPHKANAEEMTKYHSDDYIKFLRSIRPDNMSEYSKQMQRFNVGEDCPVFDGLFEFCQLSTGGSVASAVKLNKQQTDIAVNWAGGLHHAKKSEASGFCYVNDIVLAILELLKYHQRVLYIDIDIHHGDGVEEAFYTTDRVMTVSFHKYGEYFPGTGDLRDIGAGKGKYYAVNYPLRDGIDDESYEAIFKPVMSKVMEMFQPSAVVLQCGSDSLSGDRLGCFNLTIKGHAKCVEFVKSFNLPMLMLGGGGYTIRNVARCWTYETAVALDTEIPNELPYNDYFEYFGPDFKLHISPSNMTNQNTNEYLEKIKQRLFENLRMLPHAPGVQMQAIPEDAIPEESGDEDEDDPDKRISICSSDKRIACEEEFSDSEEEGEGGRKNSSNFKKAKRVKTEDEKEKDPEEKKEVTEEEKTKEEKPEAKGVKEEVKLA

Compound: O=C(CCCCCCC(=O)Nc1ccccc1)NO [SAHA]
inhibition of HDAC11 demyristoylation activity in vitro (HDAC11 [1]): cannot efficiently inhibit

Compound: CCCCCCCCCCC1(C(=O)CCCCC[C@@H]2NC(=O)[C@H]3CCCCN3C(=O)[C@H](Cc3ccccc3)NC(=O)[C@H](Cc3ccccc3)NC2=O)CO1 (stereo partly shown) [TD036]
HDAC11 inhibition (in words) (HDAC11 [2]): abolished HDAC11 inhibition

Compound: CCCCCCCCCCC[C@@H]1O[C@H]1C(=O)CCCCC[C@@H]1NC(=O)[C@H]2CCCCN2C(=O)[C@H](Cc2ccccc2)NC(=O)[C@H](Cc2ccccc2)NC1=O [TD034-(R)]
mRNA levels of YAP1 target genes CTGF and CYR61 [3]: did not observe such an effect | YAP1 protein levels [4]: did not observe such an effect

Compound: CCCCCCCCCCC[C@H]1O[C@@H]1C(=O)CCCCC[C@@H]1NC(=O)[C@H]2CCCCN2C(=O)[C@H](Cc2ccccc2)NC(=O)[C@H](Cc2ccccc2)NC1=O [TD034]
level of acetylated α-tubulin (HDAC6 and SIRT2 target) [5]: did not have such an effect | levels of acetylated histone H3 and acetylated p53 (class I HDACs and SIRT1 target) [5]: did not have such an effect | IC50 (SIRT2): ~25 µM | inhibition at 1 µM (SIRT2; read-out: SIRT2, % inhibition): 9% | inhibition at 10 µM (SIRT2; read-out: SIRT2, % inhibition): 29% | inhibition at 25 µM (SIRT2; read-out: SIRT2, % inhibition): 54% | inhibition at 1 µM (HDAC8): 0% | inhibition at 10 µM (HDAC8): 0% | inhibition at 25 µM (HDAC8): 0% | stability in Tris buffer and DTT [6]: relatively stable | inhibition at 1 µM (HDAC1): 0% | inhibition at 10 µM (HDAC1): 0% | inhibition at 25 µM (HDAC1): 0% | YAP1 mRNA level [3]: not affected | mRNA levels of YAP1 target genes CTGF and CYR61 [3]: decrease | inhibition at 1 µM (SIRT1): 0% | inhibition at 10 µM (SIRT1): 0% | inhibition at 25 µM (SIRT1): 0% | inhibition at 1 µM (HDAC6): 0% | inhibition at 10 µM (HDAC6): 0% | inhibition at 25 µM (HDAC6): 0% | YAP1 protein levels [4]: significant reduction | YAP1 protein level ([4]; wild-type (WT) A549 cells): reduced | inhibition at 1 µM (HDAC4): 0% | inhibition at 10 µM (HDAC4): 0% | inhibition at 25 µM (HDAC4): 0%

fatty acylation level of SHMT2 (HDAC11 [7]): same effect
Compound: CCCCCCCCCCCCCCCCNNC(=O)c1cccs1 [SIS17]
inhibition of HDAC11 demyristoylation activity in vitro (HDAC11 [1]): low micromolar inhibition

Compound: CC(/C=C/C(=O)NO)=C\[C@@H](C)C(=O)c1ccc(N(C)C)cc1 [TSA, trichostatin A, reference compound]
level of acetylated α-tubulin (HDAC6 and SIRT2 target) [5]: elevated level | levels of acetylated histone H3 and acetylated p53 (class I HDACs and SIRT1 target) [5]: increased levels
